Experimental findings from patent US20120142767A1, “PINE PCO ESTER COSMETIC COMPOSITION” (ACTION PIN, priority 2009, published 2012) are described below.

Values joined by “and” are separate entries in the source; they are usually repeats but may differ in a detail not shown here. Identical values can stand only once.

Series [1] relates to reconstructed human epidermis. The series can be described thus: Cytotoxicity (MTT) on reconstructed human epidermis irradiated by UVBs. In kind it is cell-based. The settings on record: for AU (MTT): 3 epidermises and mean ± SD. The protocol:
A human epidermis is reconstructed in vitro in culture inserts. A paper filter disc on which the substance to be tested (preventive treatment) is deposited on the “stratum corneum”. After 24 hours, it is irradiated by UVBs and then the substance to be tested (curative treatment) is again applied. a study of cytoxicity (MTT), The keratinocytes sites are sown at a density of 100×10^3 cells/cm^2 in inserts, the bottom of which consists of a polycarbonate membrane (porosity 0.4 μm-1 cm^2). […] 3 series of substance to be tested (5, 50 and 500 μg/mL) each consisting of 3 epidermises (to be irradiated). Next, the paper filter disks are carefully withdrawn and all the series are irradiated with UVBs (0.6 J/cm^2) (Spectroline model X-15N/F, λ=312 nm) except for the series corresponding to the absolute negative control and to the solvent control. The curative treatment is then applied as described above for the preventive treatment over a period of 24 hours, except for the positive control series 2 (indomethacin). The MTT test is carried out according to the conditions described in the publications: […]. and Berg K. Re-examination and further development of a precise and rapid dye method for measuring cell growth/cell kill. J. Immunol. Methods. 1989, 119, 203; and Mosmann T., Rapid colorimetric assay for cellular growth and survival: Application to proliferation and cytotoxic assays, J. Immunol. Methods. 1983, 65, 55-63. At the end of the selected incubation time, the Whatman paper disk is carefully picked up, the <<stratum corneum>> is rinsed and the porous membrane bearing the epidermal layer is detached from the insert with a bistoury. The culture medium are used for assaying IL-1α and MDA. […] For each layer, 200 μL of the obtained solution are pipeted into an 96 well plate for carrying out spectrometry with a plate reader (FL600-BIO-TEK) at λ=540 nm.

In series [2] the test system is MDA (malonaldehyde). The series can be described thus: Assay of MDA (lipid peroxidation) in the culture medium of UVB-irradiated reconstructed human epidermis. Particulars: for MDA / MDA (μM/AU MTT): vitamin E 200 μg/mL + UVB, 3 epidermises and mean ± SD. In kind it is cell-based. The protocol:
A human epidermis is reconstructed in vitro in culture inserts. A paper filter disc on which the substance to be tested (preventive treatment) is deposited on the “stratum corneum”. After 24 hours, it is irradiated by UVBs and then the substance to be tested (curative treatment) is again applied. an assay of MDA (malonaldehyde) (a terminal product formed during the lipid peroxidation process induced by the formation of radical species, or species activated by oxygen). […] 3 series of substance to be tested (5, 50 and 500 μg/mL) each consisting of 3 epidermises (to be irradiated). Next, the paper filter disks are carefully withdrawn and all the series are irradiated with UVBs (0.6 J/cm^2) (Spectroline model X-15N/F, λ=312 nm) except for the series corresponding to the absolute negative control and to the solvent control. The curative treatment is then applied as described above for the preventive treatment over a period of 24 hours, except for the positive control series 2 (indomethacin). […] dilutions are carried out between 0.1 and 10 μM (0.1-1-2.5-5 and 10 μM). 500 μL of culture medium (or 500 μL of a standard range) are energetically mixed in a vortex mixer, with 1 mL of a <<TCA, TBA, HCl>> solution ([…] of TCA trichloroacetic acid, 0.375% (w/v) of TBA (2-thiobarbituric acid), 0.25 M of HCl) (heated for 15 minutes at 100° C. in order to dissolve the TBA, and then left to cool). The mixture is incubated for 15 minutes at 100° C. and the OD is measured at λ=535 nm against a blank formed with the <<TCA, TBA, HCl>> solution.

Series [3] relates to normal human fibroblasts. The series can be described thus: Synthesis of collagen by human fibroblasts (Sircol assay). Set-up: stimulation of collagen at the cell matrix: dose or concentration left out as unconfirmed. In kind it is cell-based. The protocol: The goal of this study is to evaluate the effect of the test element on the synthesis of collagen after 24-hour contact with a monolayer of normal human fibroblasts.
The cells used are fibroblasts from a human child skin tissue (child) on passage 2.
The cells are sown with 50,000 cells/cm^2. After 24 hours of culture, 37° C., 5% CO2, they are incubated with the product under investigation and the reference element for 24 hours in a 1% FCS medium.
The collagen is assayed in the extra cellular matrix and in the culture medium by means of the assay box Sircol, Biocolor Ltd, Ireland, according to the procedure described in the box.
The assay is carried out with the red colouring agent Sirius (Direct Red 80) which has specific affinity for the trip helix structure (Gly-X-Y)n of native collagen.
The absorbance of the dye-collagen complex is read out with the spectrophotometer at 540 nm.
A standard curve is produced between 0 and 50 μg/mL of collagen of type I.
The collagen concentration is expressed in pg of collagen /ml/U MTT in the extra cellular matrix and in the culture medium.

The test system of series [4] is normal human fibroblasts. Description: Cytotoxic activity on a monolayer of human fibroblasts (MTT, 24 hours). Particulars: positive control (SDS), concentration not given. The procedure:
After applying the product on the cells for 24 hours, cell viability is evaluated by measuring the activity of the mitochondrial succinate dehydrogenase of living cells. This enzyme transforms MTT (3(4,5-diméthylthiazol-2-yl)-2,5-diphenyltetrazolium bromide) into blue formazan crystals. After dissolution of these crystals, a spectrophotometric read-out is performed. The measured absorbancies are proportional to the number of living cells.
The cells used are fibroblast from human skin tissue (child foreskin) in passage 1.
Six dilutions of each sample, prepared in an culture medium with 0.005% of between 60 and 0.05% of cotton oil, are tested in an amount of 5 test wells per concentration. The reference elements are tested on 5 wells.
The absorbance is measured at 540 nm. The results are expressed as a mortality percentage compared with the negative control.

Series [5] deals with IL-1α. Description: Assay of IL-1α in the culture medium of UVB-irradiated reconstructed human epidermis. In kind it is cell-based. The settings on record: indomethacin 3 hours before irradiation, not statistically significant. The protocol:
A human epidermis is reconstructed in vitro in culture inserts. A paper filter disc on which the substance to be tested (preventive treatment) is deposited on the “stratum corneum”. After 24 hours, it is irradiated by UVBs and then the substance to be tested (curative treatment) is again applied. an assay of IL-1α, a pro-inflammatory mediator in the culture medium, […] 3 series of substance to be tested (5, 50 and 500 μg/mL) each consisting of 3 epidermises (to be irradiated). Next, the paper filter disks are carefully withdrawn and all the series are irradiated with UVBs (0.6 J/cm^2) (Spectroline model X-15N/F, λ=312 nm) except for the series corresponding to the absolute negative control and to the solvent control. The curative treatment is then applied as described above for the preventive treatment over a period of 24 hours, except for the positive control series 2 (indomethacin). The assay of IL-1α is carried out in the sampled culture media (n=3), diluted to 1/10th and to 1/20th according to the procedure described in the assay kit.

The compound vitamin E registered a cytotoxic effect in series [1] of 13%. Besides, the “AU (MTT)” value in series [1] (vitamin E 200 μg/mL + UVB) is 0.246 AU and 0.369 AU and 0.356 AU. The “MDA” value is 0.422 µM and 0.423 µM and 0.484 µM in series [2]; 0.443 ± 0.035 µM in series [2] (mean ± SD of three epidermises). For the same compound, the “MDA (μM/AU MTT)” value in series [2] is 1.715 μM/AU MTT and 1.147 μM/AU MTT and 1.359 μM/AU MTT; in series [2] (mean ± SD of three epidermises), 1.407 ± 0.287 μM/AU MTT. Besides, the “increase in the MDA level” value in series [2] (vitamin E before and after irradiation, with respect to the non-irradiated absolute negative control, P<0.05) amounted to 58%.

Consider “TGF β1: positive control of the collagen synthesis test”, for which, in series [3] (TGF β1), the “stimulation of collagen at the cell matrix” value stood at 88%. Besides, in series [3] (TGF β1 (100 ng/ml)), the “Assay of collagen, Cell matrix” value is 9.74 μg/wells; the “Assay of collagen, Culture medium” value stood at 11.36 μg/wells; the “Assay of collagen, TOTAL” value is recorded as 21.09 μg/wells; the “Collagen ratio, Cell matrix” value is recorded as 10.42 μg/wells/U MTT. Moreover, in series [3] (TGF β1 (100 ng/ml)), the “Collagen ratio, Culture medium” value is recorded as 12.15 μg/wells/U MTT; the “Collagen ratio, TOTAL” value came to 22.57 μg/wells/U MTT; the “Stimulation of collagen excreted into the culture medium” value was determined as 12%; the “Stimulation of collagen produced in the cell matrix” value is recorded as 88%. Also, the “Stimulation of the synthesis of total collagen” value in series [3] (TGF β1 (100 ng/ml)) came to 38%. In series [3] (TGF β1 at 10 μg/mL), the “stimulation of total synthesis of collagen” value stood at 38%.

In the case of `CCCCCCCCCCCCOS(=O)(=O)[O-].[Na+]` [Positive control, SDS], the “UA MTT” value in series [4] is reported as 0.065 UA.

For the compound `COc1ccc2c(c1)c(CC(=O)O)c(C)n2C(=O)c1ccc(Cl)cc1` [Indomethacin, indomethacin], in series [1] (indomethacin 10 μg/mL, 3 hours before UVB), the “AU (MTT)” value is 0.214 AU and 0.288 AU and 0.232 AU. Moreover, in series [1] (indomethacin for 3 hours before irradiation), the “protective effect as regards cytotoxicity” value was “no protective effect”. Moreover, in series [5], the “inhibition of synthesis and secretion of IL-1α in the culture medium” value is −20%.
